One may read the Ki as a dissociation constant, usually derived from enzyme kinetics or from competition with a known ligand. The low end stands for tighter binding, the high end for weaker binding. By ED50 is commonly meant the dose that gives a 50% effect, or the effect in half of the subjects.

Assay [1] concerns Rattus norvegicus. In words: Dose dependendt inhibition of 8-OH-DPAT(1 mg/kg, sc) induced lower lip retraction(LLR) in rats pre-administered 20 mg/kg ip dose. The following applies: route intraperitoneal. In kind it is functional.
Assay [2] relates to Rattus norvegicus. The experiment in a line: Dose dependendt inhibition of 8-OH-DPAT(1 mg/kg, sc) induced lower lip retraction(LLR) in rats pre-administered 10 mg/kg ip dose. The conditions noted are these: route intraperitoneal. Type of assay: functional.
Assay [3] has as its system Rattus norvegicus. The experiment in a line: Tested for induction of lower lip retraction(LLR) in rats at 20 mg/kg, ip, given 15 min before the test. In kind it is functional.
Assay [4] deals with T1, 5-hydroxytryptamine receptor 1A (Rattus norvegicus, UniProt P19327).
T1 sequence (P19327 whole entry): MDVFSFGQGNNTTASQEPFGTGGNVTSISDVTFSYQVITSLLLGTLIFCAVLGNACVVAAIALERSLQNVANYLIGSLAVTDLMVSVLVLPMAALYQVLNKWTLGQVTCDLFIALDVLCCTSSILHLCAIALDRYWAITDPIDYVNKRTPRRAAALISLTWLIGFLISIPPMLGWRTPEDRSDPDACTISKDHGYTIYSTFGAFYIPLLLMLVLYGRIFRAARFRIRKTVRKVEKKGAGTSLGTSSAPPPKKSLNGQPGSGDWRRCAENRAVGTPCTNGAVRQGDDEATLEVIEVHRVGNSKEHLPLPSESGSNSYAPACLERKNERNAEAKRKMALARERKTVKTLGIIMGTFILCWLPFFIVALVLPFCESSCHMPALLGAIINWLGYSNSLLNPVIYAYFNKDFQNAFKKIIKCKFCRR
In words: Displacement of [3H]8-OH-DPAT from 5-hydroxytryptamine 1A receptor of rat hippocampus. In kind it is tissue-based.

For assay [5], the target named is 5-hydroxytryptamine receptor 2A (Rattus norvegicus, UniProt P14842). In words: Displacement of [3H]- Ketanserin from rat cortex 5-hydroxytryptamine 2A receptor. (Displacement assays read how much labelled ligand stays bound in the presence of the test substance.)
For a further assay, the system named is Mus musculus. In words: In vivo effective dose required for inhibiting (+/-)-DOI-induced (2.5 mg/kg, ip) twitches in mice. In kind it is functional.
The test system of assay [6] is Rattus norvegicus. The experiment in a line: Tested for induction of lower lip retraction(LLR) in rats at 10 mg/kg, ip, given 15 min before the test. Type of assay: functional.
Assay [7] deals with Rattus norvegicus. In words: Tested for induction of lower lip retraction(LLR) in rats at 20 mg/kg. Type of assay: functional.

Where only a bound is given, the exact number is not on record here.

Chain of 5-hydroxytryptamine receptor 2A (P14842 whole entry): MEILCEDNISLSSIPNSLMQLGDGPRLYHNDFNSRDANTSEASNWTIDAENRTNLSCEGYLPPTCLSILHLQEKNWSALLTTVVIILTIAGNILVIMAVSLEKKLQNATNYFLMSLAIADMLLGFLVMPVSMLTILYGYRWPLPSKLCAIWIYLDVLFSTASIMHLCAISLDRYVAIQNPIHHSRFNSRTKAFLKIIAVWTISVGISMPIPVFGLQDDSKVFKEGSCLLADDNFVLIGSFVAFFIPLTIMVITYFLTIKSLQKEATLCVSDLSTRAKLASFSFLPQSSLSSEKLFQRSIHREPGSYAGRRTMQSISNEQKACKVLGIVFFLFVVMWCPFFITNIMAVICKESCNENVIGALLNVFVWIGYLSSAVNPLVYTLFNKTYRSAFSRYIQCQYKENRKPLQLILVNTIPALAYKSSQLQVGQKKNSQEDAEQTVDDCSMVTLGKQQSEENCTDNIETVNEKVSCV

As for `O=C1/C(=C\c2cccnc2)c2ccccc2N1CCCN1CCN(c2cccc(Cl)c2)CC1`, the Incidence_count with Rattus norvegicus [1] came out at 0.9; in the assay with Rattus norvegicus [2], 2.3. Further, the Induction in the assay with Rattus norvegicus [3] and with Rattus norvegicus [6] was 0.1 each time. Also, the Ki in assay [4] was 0.057 µM; in assay [5] it was 0.02 µM. This compound also yielded an ED50 with Mus musculus of 27 mg/kg.

For `O=C1/C(=C\c2ccc(Cl)cc2)c2ccccc2N1CCCN1CCN(c2cccc(Cl)c2)CC1`, the inhibition constant (Ki) in assay [4] amounted to 0.204 µM; in assay [5] it was 0.366 µM. The compound further had an ED50 with Mus musculus of 15 mg/kg.

As to `COc1ccc(/C=C2/C(=O)N(CCCN3CCN(c4cccc(Cl)c4)CC3)c3ccccc32)cc1`, the Ki in assay [4] was 0.538 µM; in assay [5], 0.02 µM. For the same compound, in the assay with Mus musculus, it took a dose of 28.5 mg/kg to reach the 50% effect level (ED50).

Regarding `COc1ccc(/C=C2\C(=O)N(CCCN3CCN(c4cccc(Cl)c4)CC3)c3ccccc32)cc1`, the inhibition constant Ki in assay [5] was 0.036 µM. For the same compound, the 50% effective dose (ED50) in the assay on Mus musculus came to 16 mg/kg.

In the case of `O=C1/C(=C\c2ccccc2)c2ccccc2N1CCCN1CCN(c2cccc(Cl)c2)CC1`, the values for the Incidence_count in the assay on Rattus norvegicus [1] and in the assay on Rattus norvegicus [2] were 0.8 and 1.9, respectively. The results for the Ki in assay [4] and in assay [5] were 0.054 µM and 0.056 µM, respectively. The compound also had an ED50 in the assay on Mus musculus of 27.5 mg/kg. Besides, the Induction is recorded as 0.1 with Rattus norvegicus [6] and 0.2 in the assay on Rattus norvegicus [7].

As to `O=C1Cc2ccccc2N1CCCN1CCN(c2cccc(Cl)c2)CC1`, the Ki in assay [4] worked out at 0.029 µM; in assay [5], 0.025 µM. The ED50 with Mus musculus came out at 6.5 mg/kg.

Take `O=C1/C(=C\c2cccs2)c2ccccc2N1CCCN1CCN(c2cccc(Cl)c2)CC1`: the inhibitory constant (Ki) in assay [4] was determined as 20.5 µM; in assay [5], 0.138 µM.

On to `O=C1/C(=C/c2cccnc2)c2ccccc2N1CCCN1CCN(c2cccc(Cl)c2)CC1`, for which the inhibition constant (Ki) in assay [4] stood at 0.101 µM; in assay [5], 0.007 µM. This compound also came in with a median effective dose (ED50) with Mus musculus of 9.5 mg/kg.

Regarding `O=C1/C(=C/c2cccs2)c2ccccc2N1CCCN1CCN(c2cccc(Cl)c2)CC1`, the results for the inhibitory constant (Ki) in assay [4] and in assay [5] were greater than 50 µM and 0.064 µM, respectively. This compound returned a median effective dose (ED50) in the assay on Mus musculus of 16 mg/kg.

As to `O=C1/C(=C/c2ccc(Cl)cc2)c2ccccc2N1CCCN1CCN(c2cccc(Cl)c2)CC1`, the Ki was 1.61 µM in assay [4] and 0.032 µM in assay [5]. The compound further yielded an ED50 in the assay on Mus musculus of 20 mg/kg.

On to `O=C1/C(=C/c2ccccc2)c2ccccc2N1CCCN1CCN(c2cccc(Cl)c2)CC1`, for which the inhibition constant Ki was determined as 0.399 µM in assay [4] and 0.038 µM in assay [5]. Further, the median effective dose (ED50) in the assay on Mus musculus amounted to 28.5 mg/kg.

In assay [4], `O=C(c1ccc(F)cc1)C1CCN(CCn2c(=O)[nH]c3ccccc3c2=O)CC1` [KETANSERIN] had a Ki of 1.93 µM. For the same compound, the ED50 with Mus musculus is 0.12 mg/kg.

The values are drawn from ChEMBL document CHEMBL1134754, “Influence of the terminal amide fragment geometry in some 3-arylideneindolin-2(1H)-ones on their 5-HT1A/5-HT2A receptor activity” (Bioorg Med Chem Lett, 2001).
